In PubChem BioAssay AID248 (DTP/NCI, 2004) one finds T/C data, which are given here for 21 compounds.

Inconclusive results and toxic doses are left out.

In the assay the test system is L1210 leukemia ip in BDF1 mice, survival T/C. Put plainly: NCI In Vivo Anticancer Drug Screen. Data for tumor model L1210 Leukemia (intraperitoneal) in B6D2F1 (BDF1) mice. Particulars: endpoint: mean survival time, higher = longer survival. Summed up:
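Antitumor effect is assessed in tumor-bearing animals. Survival in the compound arm is compared with a vehicle-dosed control arm and expressed as their quotient.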

The mark [1] stands for this setting: dose: 100.0 mg/kg/injection, schedule: Q04DX003 (ip), vehicle: saline.
The mark [2] stands for this setting: dose: 200.0 mg/kg/injection, schedule: Q04DX003 (ip), vehicle: saline.
Setting [3] is: dose: 400.0 mg/kg/injection, schedule: Q04DX003 (ip), vehicle: saline.
Setting [4] is: dose: 100.0 mg/kg/injection, schedule: Q01DX009 (ip), vehicle: Klucel (hydroxypropylcellulose) (HPC).
[5] abbreviates: dose: 100.0 mg/kg/injection, schedule: Q04DX003 (ip), vehicle: Klucel (hydroxypropylcellulose) (HPC).
The mark [6] stands for this setting: dose: 200.0 mg/kg/injection, schedule: Q01DX009 (ip), vehicle: Klucel (hydroxypropylcellulose) (HPC).
The mark [7] stands for this setting: dose: 200.0 mg/kg/injection, schedule: Q04DX003 (ip), vehicle: Klucel (hydroxypropylcellulose) (HPC).
[8] abbreviates: dose: 400.0 mg/kg/injection, schedule: Q04DX003 (ip), vehicle: Klucel (hydroxypropylcellulose) (HPC).
Setting [9] is: dose: 100.0 mg/kg/injection, schedule: Q04DX003 (ip), vehicle: saline with Tween-80.
Setting [10] is: dose: 200.0 mg/kg/injection, schedule: Q04DX003 (ip), vehicle: saline with Tween-80.
Where [11] appears, read: dose: 400.0 mg/kg/injection, schedule: Q04DX003 (ip), vehicle: saline with Tween-80.
The mark [12] stands for this setting: dose: 100.0 mg/kg/injection, schedule: Q04DX002 (ip), vehicle: Klucel (hydroxypropylcellulose) (HPC).
The mark [13] stands for this setting: dose: 200.0 mg/kg/injection, schedule: Q04DX002 (ip), vehicle: Klucel (hydroxypropylcellulose) (HPC).

On to `Cc1c[n+]2ccc3ccccc3c2c2ccccc12`, for which the T/C reads like this: (dose: 1.0 mg/kg/injection, schedule: Q01DX015 (ip), vehicle: carboxymethylcellulose (CMC)) 100 % of control; (dose: 1.25 mg/kg/injection, schedule: Q01DX009 (ip), vehicle: saline) 94 % of control; (dose: 2.0 mg/kg/injection, schedule: Q01DX015 (ip), vehicle: carboxymethylcellulose (CMC)) 105 % of control; (dose: 2.5 mg/kg/injection, schedule: Q01DX009 (ip), vehicle: saline) 95 % of control; (dose: 2.5 mg/kg/injection, schedule: Q04DX003 (ip), vehicle: acetone) 103 % of control; (dose: 4.0 mg/kg/injection, schedule: Q01DX015 (ip), vehicle: carboxymethylcellulose (CMC)) 117 % of control. For the same compound, the T/C is 106 % of control (dose: 5.0 mg/kg/injection, schedule: Q01DX001 (ip), vehicle: acetone); 113 % of control (dose: 5.0 mg/kg/injection, schedule: Q01DX009 (ip), vehicle: saline); 101 % of control (dose: 5.0 mg/kg/injection, schedule: Q04DX003 (ip), vehicle: acetone); 113 % of control (dose: 7.0 mg/kg/injection, schedule: Q01DX009 (ip), vehicle: saline); 112 % of control (dose: 8.0 mg/kg/injection, schedule: Q01DX015 (ip), vehicle: carboxymethylcellulose (CMC)); 117 % of control (dose: 10.0 mg/kg/injection, schedule: Q01DX001 (ip), vehicle: acetone).
In the case of `NCCB(O)O`, the T/C under setting [1] is 95 % of control, the T/C under setting [2] was 93 % of control and the T/C under setting [3] was 98 % of control.
Regarding `O=S(=O)(O)c1ccc(CCCCCCCCCl)cc1`, the T/C by setting is: (dose: 100.0 mg/kg/injection, schedule: Q04DX002 (ip), vehicle: saline) 87 % of control; (dose: 200.0 mg/kg/injection, schedule: Q04DX002 (ip), vehicle: saline) 93 % of control.
As to `Clc1ccc(C(c2ccc(Cl)cc2)c2ccccn2)cc1`, the T/C is, setting by setting: under setting [4], 92 % of control; under setting [5], 98 % of control; under setting [6], 97 % of control; under setting [7], 95 % of control; under setting [8], 97 % of control.
Regarding `Cc1ccc(C)c(N2C(=O)C(=O)N(c3cc(C)ccc3C)P2(=O)N(CCCl)CCCl)c1`, the T/C is, setting by setting: (dose: 18.0 mg/kg/injection, schedule: Q01DX Z (ip), vehicle: carboxymethylcellulose (CMC)) 101 % of control; (dose: 36.0 mg/kg/injection, schedule: Q01DX Z (ip), vehicle: carboxymethylcellulose (CMC)) 90 % of control; (dose: 72.0 mg/kg/injection, schedule: Q01DX Z (ip), vehicle: carboxymethylcellulose (CMC)) 93 % of control; (dose: 145.0 mg/kg/injection, schedule: Q01DX Z (ip), vehicle: carboxymethylcellulose (CMC)) 96 % of control.
For the compound `COc1cc(NC(=O)O/N=C/c2ccccn2)cc(OC)c1OC`, the T/C reads like this: (dose: 100.0 mg/kg/injection, schedule: Q01DX009 (ip), vehicle: saline with Tween-80) 91 % of control; (dose: 200.0 mg/kg/injection, schedule: Q01DX009 (ip), vehicle: saline with Tween-80) 92 % of control.
As for `N#CC(Nc1ccccc1)c1ccccc1` (stereo not drawn), the T/C runs as follows: under setting [4], 91 % of control; under setting [5], 97 % of control; under setting [6], 96 % of control; under setting [7], 95 % of control; under setting [8], 104 % of control.
Turning to `CN1CCN(C)P1N1CCCC1`, the T/C is 89 % of control (dose: 100.0 mg/kg/injection, schedule: Q01DX001 (ip), vehicle: saline); 95 % of control (dose: 200.0 mg/kg/injection, schedule: Q01DX001 (ip), vehicle: saline); 93 % of control (dose: 400.0 mg/kg/injection, schedule: Q01DX001 (ip), vehicle: saline).
`Nc1nc(N)c2cc(CCc3ccc(C(=O)NC(CCC(=O)O)C(=O)O)cc3)ccc2n1` (stereo not drawn): the T/C was 111 % of control (dose: 39.0 micrograms/kg/injection, schedule: Q01DX009 (ip), vehicle: Klucel (hydroxypropylcellulose) (HPC)); 117 % of control (dose: 78.0 micrograms/kg/injection, schedule: Q01DX009 (ip), vehicle: Klucel (hydroxypropylcellulose) (HPC)); 117 % of control (dose: 156.0 micrograms/kg/injection, schedule: Q01DX009 (ip), vehicle: Klucel (hydroxypropylcellulose) (HPC)); 170 % of control (dose: 625.0 micrograms/kg/injection, schedule: Q01DX009 (ip), vehicle: Klucel (hydroxypropylcellulose) (HPC)).
Regarding `Nc1ncnc(N)c1N`, the T/C is, setting by setting: (dose: 100.0 mg/kg/injection, schedule: Q01DX001 (ip), vehicle: saline with Tween-80) 104 % of control; (dose: 200.0 mg/kg/injection, schedule: Q01DX001 (ip), vehicle: saline with Tween-80) 105 % of control; (dose: 400.0 mg/kg/injection, schedule: Q01DX001 (ip), vehicle: saline with Tween-80) 98 % of control.
In the case of `C=C(C)C1CC=C(C=O)CC1` (stereo not drawn), the T/C was 93 % of control (dose: 100.0 mg/kg/injection, schedule: Q01DX001 (ip), vehicle: Klucel (hydroxypropylcellulose) (HPC)); 94 % of control under setting [4]; 101 % of control under setting [5]; 92 % of control (dose: 200.0 mg/kg/injection, schedule: Q01DX001 (ip), vehicle: Klucel (hydroxypropylcellulose) (HPC)); 109 % of control under setting [6]; 98 % of control under setting [7]. Moreover, the T/C runs as follows: (dose: 400.0 mg/kg/injection, schedule: Q01DX001 (ip), vehicle: Klucel (hydroxypropylcellulose) (HPC)) 92 % of control; under setting [8], 101 % of control.
Take `CC(C)=NNCCO`: the T/C runs as follows: (dose: 12.5 mg/kg/injection, schedule: Q01DX001 (ip), vehicle: saline) 103 % of control; (dose: 25.0 mg/kg/injection, schedule: Q01DX001 (ip), vehicle: saline) 103 % of control; (dose: 50.0 mg/kg/injection, schedule: Q01DX001 (ip), vehicle: saline) 100 % of control.
As to `O=C(O)CN1C(=O)C2C3C=CC(C3)C2C1=O` (stereo not drawn), the T/C runs as follows: under setting [9], 97 % of control; under setting [10], 94 % of control; under setting [11], 94 % of control.
In the case of `COc1cc(CCCc2ccc(O)c(=O)cc2)cc(OC)c1OC`, the T/C was 111 % of control under setting [9], 94 % of control under setting [10] and 94 % of control under setting [11].
In the case of `CCC(=O)c1ccc(N2CCCCC2)cc1`, the T/C was 103 % of control under setting [12] and 89 % of control under setting [13].
`c1ccc([CH2][Sn]([c]2ccccc2)([c]2ccccc2)[c]2ccccc2)cc1`: the T/C runs as follows: (dose: 50.0 mg/kg/injection, schedule: Q01DX009 (ip), vehicle: Klucel (hydroxypropylcellulose) (HPC)) 100 % of control; under setting [4], 104 % of control; under setting [5], 101 % of control; under setting [6], 98 % of control; under setting [7], 98 % of control; under setting [8], 101 % of control.
As for `CNCC(NC)c1cc(OC)c(OC)c(OC)c1` (stereo not drawn), the T/C runs as follows: under setting [1], 94 % of control; under setting [2], 95 % of control; under setting [3], 94 % of control.
Take `CCOC(=O)CCCC(=O)c1ccc(OC)c(OC)c1`: the T/C was 100 % of control (dose: 100.0 mg/kg/injection, schedule: Q01DX001 (ip), vehicle: carboxymethylcellulose (CMC)); 102 % of control (dose: 200.0 mg/kg/injection, schedule: Q01DX001 (ip), vehicle: carboxymethylcellulose (CMC)); 100 % of control (dose: 400.0 mg/kg/injection, schedule: Q01DX001 (ip), vehicle: carboxymethylcellulose (CMC)).
With `C1CC2CCCN2C1`, the T/C (dose: 12.5 mg/kg/injection, schedule: Q01DX009 (ip), vehicle: saline) was 93 % of control; the T/C (dose: 25.0 mg/kg/injection, schedule: Q01DX009 (ip), vehicle: saline) was 93 % of control; the T/C (dose: 50.0 mg/kg/injection, schedule: Q01DX009 (ip), vehicle: saline) is 95 % of control.
On to `O=C(Nc1ccccn1)Nc1cccc2ccccc12`, for which the T/C was 103 % of control under setting [12]; 97 % of control under setting [13]; 87 % of control (dose: 400.0 mg/kg/injection, schedule: Q04DX002 (ip), vehicle: Klucel (hydroxypropylcellulose) (HPC)).
`C#C/C=C/CC1OC(C(Br)CC)CC(Br)C2CC1O2` (stereo not drawn): the T/C was 92 % of control (dose: 75.0 mg/kg/injection, schedule: Q01DX001 (ip), vehicle: carboxymethylcellulose (CMC)); 96 % of control (dose: 150.0 mg/kg/injection, schedule: Q01DX001 (ip), vehicle: carboxymethylcellulose (CMC)); 96 % of control (dose: 300.0 mg/kg/injection, schedule: Q01DX001 (ip), vehicle: carboxymethylcellulose (CMC)).
